Measurements published in article PMC8806947, “β-galactosidase GALA from Bacillus circulans with high transgalactosylation activity” (Bioengineered, 2021).

What was measured:
[1] = target: T1, GALA (β-galactosidase from Bacillus circulans) (Niallia circulans, UniProt E5RWQ2); assay: o-nitrophenol release, absorbance at […] nm; type: biochemical; conditions: 0.25% oNPG, 20 mM phosphate-citrate pH 6.0, 45 °C, 15 min
T1 construct: gene bga; codon-optimised synthetic gene (galAm) with His-tag, secreted from Pichia pastoris GS115 (pPICZαA); HisTrap and gel filtration; predicted 1703 residues, 190 kDa; glycosylated
T1 sequence (E5RWQ2 24-1737): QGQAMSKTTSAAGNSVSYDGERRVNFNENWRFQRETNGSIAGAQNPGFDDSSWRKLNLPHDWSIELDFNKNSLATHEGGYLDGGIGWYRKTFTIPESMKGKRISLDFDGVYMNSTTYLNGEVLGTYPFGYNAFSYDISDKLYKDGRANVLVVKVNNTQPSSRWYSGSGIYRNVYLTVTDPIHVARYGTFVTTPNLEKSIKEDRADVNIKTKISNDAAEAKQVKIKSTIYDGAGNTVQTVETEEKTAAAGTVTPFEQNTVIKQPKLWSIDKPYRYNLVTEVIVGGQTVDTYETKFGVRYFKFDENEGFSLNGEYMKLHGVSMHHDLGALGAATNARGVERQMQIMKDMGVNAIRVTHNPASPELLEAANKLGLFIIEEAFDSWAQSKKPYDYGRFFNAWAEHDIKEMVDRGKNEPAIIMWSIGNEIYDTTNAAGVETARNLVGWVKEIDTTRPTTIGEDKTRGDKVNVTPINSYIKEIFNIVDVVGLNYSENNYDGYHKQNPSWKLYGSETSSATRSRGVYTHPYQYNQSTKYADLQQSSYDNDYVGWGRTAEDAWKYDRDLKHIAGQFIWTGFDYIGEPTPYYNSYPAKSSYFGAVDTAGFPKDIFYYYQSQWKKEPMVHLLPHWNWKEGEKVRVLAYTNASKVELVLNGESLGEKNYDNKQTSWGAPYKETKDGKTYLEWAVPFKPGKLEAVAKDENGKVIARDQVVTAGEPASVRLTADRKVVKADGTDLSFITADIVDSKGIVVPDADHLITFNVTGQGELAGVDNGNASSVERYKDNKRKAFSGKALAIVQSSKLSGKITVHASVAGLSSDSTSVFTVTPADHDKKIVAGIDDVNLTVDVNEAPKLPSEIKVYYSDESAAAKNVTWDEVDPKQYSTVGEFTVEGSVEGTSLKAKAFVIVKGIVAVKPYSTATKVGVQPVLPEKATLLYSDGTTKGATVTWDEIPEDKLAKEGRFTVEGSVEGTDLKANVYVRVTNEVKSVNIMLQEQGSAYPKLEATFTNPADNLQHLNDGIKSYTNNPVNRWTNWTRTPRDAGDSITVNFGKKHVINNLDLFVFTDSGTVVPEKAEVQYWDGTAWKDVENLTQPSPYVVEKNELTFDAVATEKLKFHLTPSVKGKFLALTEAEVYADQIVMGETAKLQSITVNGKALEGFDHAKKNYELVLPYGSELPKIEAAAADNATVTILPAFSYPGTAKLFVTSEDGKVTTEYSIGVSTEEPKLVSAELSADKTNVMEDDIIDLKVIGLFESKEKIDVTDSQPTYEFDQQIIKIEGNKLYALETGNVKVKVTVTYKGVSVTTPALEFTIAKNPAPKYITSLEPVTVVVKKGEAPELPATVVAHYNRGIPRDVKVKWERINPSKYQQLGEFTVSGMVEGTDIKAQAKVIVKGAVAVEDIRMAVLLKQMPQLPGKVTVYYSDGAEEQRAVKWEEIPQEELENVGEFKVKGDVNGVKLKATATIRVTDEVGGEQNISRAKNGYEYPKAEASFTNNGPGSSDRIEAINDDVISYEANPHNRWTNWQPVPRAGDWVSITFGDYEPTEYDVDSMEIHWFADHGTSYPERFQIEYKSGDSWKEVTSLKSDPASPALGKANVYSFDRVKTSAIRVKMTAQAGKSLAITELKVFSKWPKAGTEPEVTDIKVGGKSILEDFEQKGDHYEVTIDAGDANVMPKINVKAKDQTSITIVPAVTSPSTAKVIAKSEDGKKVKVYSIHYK

[2] = target: T1, GALA (β-galactosidase from Bacillus circulans); assay: HPLC and TLC of hydrolysis and transgalactosylation products; type: biochemical; conditions: 200-500 g/L lactose, 0.1 M phosphate-citrate pH 5-7, 30-50 °C; also galactosyl acceptor

O=[N+]([O-])c1ccccc1O[C@@H]1O[C@H](CO)[C@H](O)[C@H](O)[C@H]1O [O-nitrophenyl-β-D-galactopyranoside]
o-nitrophenol release, absorbance at 420 nm [1]: The experiments were carried out three times using ONPG as the substrate

OC[C@H]1O[C@@H](O[C@H]2[C@H](O)[C@@H](O)C(O)O[C@@H]2CO)[C@H](O)[C@@H](O)[C@H]1O (some centres unmarked) [lactose]
HPLC and TLC of hydrolysis and transgalactosylation products [2]: enzymatic transgalactosylation activity of the β-galactosidase, using lactose as the substrate
